Earlier results on twelve compounds are cited in patent US4925831A, “Aminoalkyl naphthalenediols as host resistance enhancers against viral infection” (priority 1987, dated 1990).

“Also recorded” adds a separate entry of the source. Read-outs that look alike come from different tables or passages of the source.

Assay in data set [1]: not given
This is another data set of the same source.

The test system of another data set is AIDS or ARC patients. The following applies: result in words.
The subject of data set [2] is HIV reverse transcriptase. The following applies: result in words.
Another data set has as its system HIV. The conditions noted are these: result in words.
The conditions of data set [3]: in vivo.

With `Cc1cn([C@H]2C[C@H](N=[N+]=[N-])[C@@H](CO)O2)c(=O)[nH]c1=O` [Azidothymidine, 3'-azido-3'-deoxythymidine], the “adverse / toxic effects, tolerability” value was “some toxicity, with anemia and headaches” (clinical, result in words); “virtually no toxic effects” (clinical, result in words, listed as AZT). Also, the “half-life in the body” value in data set [1] (in vivo) is on record as “relatively short half-life in the body”. In data set [1] (oral), the oral absorption entry was “Well absorbed orally”. Moreover, the clinical efficacy entry in the data set on AIDS or ARC patients is on record as “promise in prolonging lives of patients with AIDS or AIDS-related complex (ARC)”.

For the compound `Cc1ccc(C(=O)Nc2ccc(S(=O)(=O)O)c3cc(S(=O)(=O)O)cc(S(=O)(=O)O)c23)cc1NC(=O)c1cccc(NC(=O)Nc2cccc(C(=O)Nc3cc(C(=O)Nc4ccc(S(=O)(=O)O)c5cc(S(=O)(=O)O)cc(S(=O)(=O)O)c45)ccc3C)c2)c1` [Suramin], the “inhibition of HIV reverse transcriptase” value in data set [2] was “Potent inhibitor of HIV reverse transcriptase”. In addition, the clinical efficacy entry in the data set with AIDS or ARC patients is “little or no evidence of clinical improvement or immunologic recovery”. For the compound `CC(=O)Nc1ccc(C(=O)O)cc1.CC(=O)Nc1ccc(C(=O)O)cc1.CC(=O)Nc1ccc(C(=O)O)cc1.CC(O)CN(C)C.CC(O)CN(C)C.CC(O)CN(C)C.O=c1[nH]cnc2c1ncn2[C@@H]1O[C@H](CO)[C@@H](O)[C@H]1O` [Inosine pranobex], the clinical efficacy entry in the data set with AIDS or ARC patients is recorded as “improve immune function in ARC patients”. α-Interferon: the “effect on HIV growth / infectivity” value in the data set on HIV is reported as “Checks the growth of HIV in vitro”. For the same compound, in the data set on AIDS or ARC patients, the clinical efficacy entry was “induced tumor regression in some AIDS-related Kaposi's sarcoma cases”.

Turning to “ammonium 21-tungsto-9-antimoniate [HPA-23]”, the “effect on HIV growth / infectivity” value in the data set with HIV is “some tendency to check the growth of HIV”. In addition, in the data set on AIDS or ARC patients, the clinical efficacy result was “no therapeutic benefit has been documented in AIDS patients”. Turning to `CC(C)(S)[C@@H](N)C(=O)O` [D-Penicillamine, 3-mercapto-D-valine], the “adverse / toxic effects, tolerability” value (human, in vivo) is “temporarily depressed T cell levels in 13 AIDS patients”. Besides, in the data set with AIDS or ARC patients, the clinical efficacy result is “Inhibits HIV reproduction in humans; also recorded: suppressed the virus”. In the case of `CO[C@H]1/C=C/O[C@@]2(C)Oc3c(C)c(O)c4c(c3C2=O)C2=NC3(CCN(CC(C)C)CC3)NC2=C(NC(=O)/C(C)=C\C=C\[C@H](C)[C@H](O)[C@@H](C)[C@@H](O)[C@@H](C)[C@H](OC(C)=O)[C@@H]1C)C4=O` [Ansamycin, rifabutin], the clinical efficacy result in the data set with AIDS or ARC patients is on record as “some efficacy in treating AIDS patients with an opportunistic infection caused by the bacterium Mycobacterium aviumintracellulare”. For the compound `O=C(O)P(=O)(O)O` [Foscarnet, trisodium phosphonoformate], for the setting “human, in vivo”, the “adverse / toxic effects, tolerability” value is listed as “serious side effects”. For the same compound, the “inhibition of HIV reverse transcriptase” value in data set [2] is reported as “Inhibits HIV reverse transcriptase activity in vitro at levels pharmacologically acceptable in vivo”. Consider `CC(C)(N1CC1C#N)N1CC1C(N)=O` (stereo not shown) [Azimexon], for which, for the setting “clinical, result in words”, the “adverse / toxic effects, tolerability” value is “only toxic effect was mild hemolysis”. Further, the clinical efficacy entry with AIDS or ARC patients was “improvements in symptoms and immune function in patients with ARC but not AIDS”. With `NC(=O)c1ncn([C@@H]2O[C@H](CO)[C@@H](O)[C@H]2O)n1` [Ribavirin, 1β-D-ribofuranosyl-1,2,4-triazole-3-carboxamide], the clinical efficacy result in the data set on AIDS or ARC patients is “inhibited viral replication and improved immune function in AIDS patients”. lentinan: the toxic side effects result in data set [3] is “undesirable toxic side effects, such as granulomatous inflammation”. Regarding krestin, the toxic side effects result in data set [3] was “undesirable toxic side effects, such as granulomatous inflammation”.
